Experimental data taken from EP0435946B1, “METHODS FOR MODIFYING THE BINDING OF CELL ADHESION RECEPTORS” (LA JOLLA CANCER RESEARCH FOUNDATION, priority 1988, dated 1990).

What was measured:
fibronectin receptor [1] = target: T1, fibronectin receptor (Homo sapiens, UniProt P05556+P08648); experiment: Attachment of fibronectin receptor liposomes to fibronectin-coated wells in the presence of cations; format: binding; design: from tissue; host or cells: human placenta; settings: for fibronectin receptor liposome attachment, result in words: compared with Ca²⁺, Ca²⁺ and Mg²⁺, or absence of Ca²⁺ or Mg²⁺; for % Attachment: cations 1 mM, percentage of control attachment in 1 mM CaCl₂ and 1 mM MgCl₂, mean and standard error, three experiments
T1 sequence (P08648 42-894 limits assumed): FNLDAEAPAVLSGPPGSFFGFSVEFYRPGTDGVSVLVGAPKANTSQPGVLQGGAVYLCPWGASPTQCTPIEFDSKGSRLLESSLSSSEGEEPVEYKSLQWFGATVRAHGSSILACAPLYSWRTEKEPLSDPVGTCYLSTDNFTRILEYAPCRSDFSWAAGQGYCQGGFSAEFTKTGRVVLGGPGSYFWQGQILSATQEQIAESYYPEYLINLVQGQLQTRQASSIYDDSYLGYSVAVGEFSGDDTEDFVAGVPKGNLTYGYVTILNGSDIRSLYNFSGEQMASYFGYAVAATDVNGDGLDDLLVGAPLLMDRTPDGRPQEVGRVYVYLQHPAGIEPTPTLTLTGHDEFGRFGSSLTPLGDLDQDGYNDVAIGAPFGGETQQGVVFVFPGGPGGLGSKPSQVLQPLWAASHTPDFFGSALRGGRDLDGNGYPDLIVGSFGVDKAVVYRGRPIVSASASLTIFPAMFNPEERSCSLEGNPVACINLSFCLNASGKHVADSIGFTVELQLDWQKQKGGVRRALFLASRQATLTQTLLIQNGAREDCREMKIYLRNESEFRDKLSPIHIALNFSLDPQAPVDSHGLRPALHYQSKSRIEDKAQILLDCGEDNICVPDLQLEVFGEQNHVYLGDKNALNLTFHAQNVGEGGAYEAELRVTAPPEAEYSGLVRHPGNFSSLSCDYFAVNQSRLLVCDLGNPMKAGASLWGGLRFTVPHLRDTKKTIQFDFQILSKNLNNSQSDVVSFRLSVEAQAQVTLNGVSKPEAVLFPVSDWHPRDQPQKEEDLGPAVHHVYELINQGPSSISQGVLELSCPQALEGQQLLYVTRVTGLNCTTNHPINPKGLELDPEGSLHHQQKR
T1 sequence (P08648 895-1049 partner limits assumed): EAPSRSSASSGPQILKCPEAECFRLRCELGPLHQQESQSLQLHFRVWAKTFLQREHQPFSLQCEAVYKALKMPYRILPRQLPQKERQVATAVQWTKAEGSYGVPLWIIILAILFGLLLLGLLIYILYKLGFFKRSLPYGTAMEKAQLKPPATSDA
T1 sequence (P05556 21-798): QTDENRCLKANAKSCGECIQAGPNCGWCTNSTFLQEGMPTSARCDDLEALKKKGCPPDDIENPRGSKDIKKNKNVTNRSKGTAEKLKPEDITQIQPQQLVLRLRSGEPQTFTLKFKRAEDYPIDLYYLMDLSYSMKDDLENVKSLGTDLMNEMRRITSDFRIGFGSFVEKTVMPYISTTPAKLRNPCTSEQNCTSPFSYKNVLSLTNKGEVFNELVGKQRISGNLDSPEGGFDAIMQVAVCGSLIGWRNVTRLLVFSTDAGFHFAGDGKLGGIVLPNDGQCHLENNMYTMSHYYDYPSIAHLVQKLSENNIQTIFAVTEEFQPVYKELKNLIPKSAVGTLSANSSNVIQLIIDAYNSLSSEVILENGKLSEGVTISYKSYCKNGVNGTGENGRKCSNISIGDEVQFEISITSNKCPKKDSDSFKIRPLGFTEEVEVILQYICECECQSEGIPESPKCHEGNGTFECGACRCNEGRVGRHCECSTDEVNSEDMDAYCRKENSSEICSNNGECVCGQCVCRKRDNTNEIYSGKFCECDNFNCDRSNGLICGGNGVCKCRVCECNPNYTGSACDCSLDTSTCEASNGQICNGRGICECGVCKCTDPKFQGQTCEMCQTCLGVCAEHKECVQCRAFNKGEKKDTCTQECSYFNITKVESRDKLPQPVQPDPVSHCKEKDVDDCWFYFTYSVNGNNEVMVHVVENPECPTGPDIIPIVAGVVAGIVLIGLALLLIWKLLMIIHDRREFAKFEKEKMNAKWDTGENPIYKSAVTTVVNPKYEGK
Description: The effect of cations on the binding of the fibronectin receptor to its ligand was studied by incorporating the receptor into liposomes and measuring receptor liposome attachment to a fibronectin-coated surface in the presence of various cations.
(§1) Fibronectin receptors were purified from human placenta by affinity chromatography on a 110 kDa chymotryptic fragment of fibronectin, according to the methods of Pytela et al., Cell 40:191 (1985), and Pytela et al., Meth. Enzymol. 144:475-489 (1987), with the following modifications. The 110 kDa fragment corresponds to the 120 kDa fragment described in Pytela et al. (1985), supra. […] Briefly, homogenized placental tissue was washed once with 2 volumes of cold TBS containing 1 mM CaCl₂, 1 mM MgCl₂ and 3 mM phenylmethyl sulfonyl fluoride (PMSF), centrifuged, and the pellet was extracted with 1 volume of cold TBS containing 100 mM octyl-β-D-glucopyranoside (Calbiochem, La Jolla, CA), and calcium, magnesium, and PMSF as in Pytela et al., (1985) supra. The clear extract was slowly applied at 4°C, first to a column of plain Sepharose, and then to 110 kDa fibronectin fragment-Sepharose. […] Bound receptor was eluted with the wash buffer containing 20 mM EDTA in place of calcium and magnesium. Eluted receptor was used immediately for the preparation of receptor liposomes or stored frozen. In some experiments, 1 mM MnCl₂ was substituted for CaCl₂ and MgCl₂ throughout the isolation procedure.
Aliquots of the receptor liposome preparation were mixed with the indicated cations (1 mM) and the attachment of the liposomes to microtiter wells coated with fibronectin was assayed. The results are expressed as a percentage of control attachment, which was measured in the presence of 1 mM CaCl₂ and 1 mM MgCl₂. Mean and standard error from three experiments are shown.

Vitronectin receptor = target: T2, Vitronectin receptor (Homo sapiens, UniProt P05106+P06756); experiment: Vitronectin receptor liposome attachment to vitronectin; format: binding; settings: a number of liposome attachment assays
T2 construct: Vitronectin receptor was purified from human placenta; from tissue; host or cells: human placenta
T2 sequence (P06756 31-889 limits assumed): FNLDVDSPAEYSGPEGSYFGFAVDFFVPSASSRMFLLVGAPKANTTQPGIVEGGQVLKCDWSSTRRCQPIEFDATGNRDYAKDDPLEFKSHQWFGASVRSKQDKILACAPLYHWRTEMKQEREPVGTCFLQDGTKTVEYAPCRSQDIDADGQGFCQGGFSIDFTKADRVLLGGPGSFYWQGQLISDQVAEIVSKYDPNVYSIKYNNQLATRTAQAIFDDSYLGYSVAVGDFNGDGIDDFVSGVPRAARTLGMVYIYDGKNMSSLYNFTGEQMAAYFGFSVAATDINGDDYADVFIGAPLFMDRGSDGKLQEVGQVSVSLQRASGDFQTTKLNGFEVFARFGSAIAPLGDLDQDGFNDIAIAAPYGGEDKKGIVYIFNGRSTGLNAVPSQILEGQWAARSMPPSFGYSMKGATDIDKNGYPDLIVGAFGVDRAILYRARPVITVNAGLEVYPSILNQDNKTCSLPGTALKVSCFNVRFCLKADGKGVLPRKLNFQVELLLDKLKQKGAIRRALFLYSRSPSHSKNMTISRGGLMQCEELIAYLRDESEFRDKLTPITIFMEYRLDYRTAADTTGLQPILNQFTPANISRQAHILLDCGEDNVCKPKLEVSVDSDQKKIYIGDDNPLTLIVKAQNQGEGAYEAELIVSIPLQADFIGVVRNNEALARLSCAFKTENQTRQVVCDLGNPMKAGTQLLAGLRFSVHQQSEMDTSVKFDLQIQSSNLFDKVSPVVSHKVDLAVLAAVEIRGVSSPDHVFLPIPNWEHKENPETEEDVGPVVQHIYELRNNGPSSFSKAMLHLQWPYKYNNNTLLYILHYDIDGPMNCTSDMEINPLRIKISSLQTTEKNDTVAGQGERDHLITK
T2 sequence (P06756 891-1048 partner limits assumed): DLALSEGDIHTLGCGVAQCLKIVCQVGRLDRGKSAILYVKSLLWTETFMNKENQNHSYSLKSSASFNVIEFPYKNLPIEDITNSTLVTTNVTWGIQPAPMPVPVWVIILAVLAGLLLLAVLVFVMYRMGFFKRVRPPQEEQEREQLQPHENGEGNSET
T2 sequence (P05106 27-788): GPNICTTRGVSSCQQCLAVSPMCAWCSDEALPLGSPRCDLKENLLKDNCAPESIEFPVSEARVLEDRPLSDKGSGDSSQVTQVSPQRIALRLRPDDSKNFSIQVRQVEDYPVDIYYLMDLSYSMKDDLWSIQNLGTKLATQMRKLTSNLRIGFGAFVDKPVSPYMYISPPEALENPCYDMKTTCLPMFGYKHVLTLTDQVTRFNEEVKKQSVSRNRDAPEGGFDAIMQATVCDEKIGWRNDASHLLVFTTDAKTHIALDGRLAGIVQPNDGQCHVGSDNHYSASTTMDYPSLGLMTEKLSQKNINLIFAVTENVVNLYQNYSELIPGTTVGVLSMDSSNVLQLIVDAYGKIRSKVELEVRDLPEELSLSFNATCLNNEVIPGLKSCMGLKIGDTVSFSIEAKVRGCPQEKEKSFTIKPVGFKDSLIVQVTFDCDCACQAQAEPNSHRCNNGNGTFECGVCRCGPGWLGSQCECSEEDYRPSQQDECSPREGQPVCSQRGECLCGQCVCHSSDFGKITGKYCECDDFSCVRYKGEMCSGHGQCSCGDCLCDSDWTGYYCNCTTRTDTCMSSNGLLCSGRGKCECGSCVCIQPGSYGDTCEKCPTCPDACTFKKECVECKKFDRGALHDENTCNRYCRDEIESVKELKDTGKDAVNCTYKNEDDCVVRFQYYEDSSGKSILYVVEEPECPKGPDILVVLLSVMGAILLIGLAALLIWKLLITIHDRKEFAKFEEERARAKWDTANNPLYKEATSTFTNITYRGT
Protocol: Vitronectin receptor was purified from human placenta as described in Example I for the fibronectin receptor, but a different affinity matrix containing the peptide Gly-Arg-Gly-Asp-Ser-Pro-Lys was employed. The peptide was synthesized with an Applied Biosystems Model 430A, according to the manufacturer's instructions. Vitronectin receptor was isolated according to the method of Example I in the presence of 1 mM Ca²⁺ and 1mM Mg²⁺ or in 1 mM Ca²⁺ alone. In a number of liposome attachment assays, Mn²⁺ enhanced the binding of this integrin to vitronectin by 20-50% over the binding measured in Ca²⁺ and Mg²⁺.

Type I collagen receptor = Type I collagen receptor liposome binding to collagen; design: species or system human
Description: Type I collagen receptor was also isolated from placenta, employing the method given in Example I with the following modifications. Mn²⁺ was used in the chromatography buffers for this procedure, and the affinity matrix contained Type I collagen.

A375M cells [2] = experiment: In vitro wound model of cell migration on ligand-coated cell-free lanes; format: cell-based, human; settings: 100 µM MnCl₂ in media with Ca²⁺ and Mg²⁺; spaces coated with fibronectin and Type IV collagen; versus controls
Protocol: An in vitro wounding assay was developed to test the effects of Mn²⁺ on cell migration into a wounded (cell free) area that was coated with various adhesion proteins. This assay allowed the determination of the specific ligands and the respective receptors that are involved in the migration process. More specifically, this assay was used to test cell migration on various substrates in the presence of Mn²⁺. A375M cells were grown to confluency in 6 well culture dishes (Corning, New York, NY). A specially designed comb which scratches out 4-2mm wide lanes was used to make a crossing pattern in the cell layer, removing the cells. The cell-free lanes were then coated for 1 hour at 37°C with one of the following ligands: fibronectin, vitronectin, Type I or Type IV collagen, bovine serum albumin or laminin. These proteins were dissolved in PBS at a concentration of 10µg/ml and then added directly to the wounded cell layer.
Standard Culture Media containing Ca²⁺ and Mg²⁺ and 100 µM MnCl₂ was added to the culture dishes while control dishes had the same media without Mn²⁺. Cell migration was monitored by visualization.

fibronectin receptor [3] = target: T1, fibronectin receptor; settings: Mn²⁺ versus Ca²⁺/Mg²⁺
A375M cells [4] = system: A375M cells
fibronectin receptor [5] = target: T1, fibronectin receptor; experiment: Yield of fibronectin receptor from affinity chromatography on 110 kDa fibronectin fragment, densitometry of SDS-PAGE; design: from tissue; host or cells: human placenta
Protocol: as §1
Fibronectin receptor can be isolated by affinity chromatography on the 110 kDa fibronectin fragment (See Pytela, et al., (1985), (1987), supra). […]

fibronectin receptor [6] = target: T1, fibronectin receptor; experiment: Attachment of fibronectin receptor liposomes to fibronectin-coated wells in the presence of cations; format: binding; design: from tissue; host or cells: human placenta; settings: for binding of fibronectin receptor liposomes to fibronectin, multiple of binding measured in Ca²⁺ alone: in 1mM Ca²⁺; for binding of fibronectin receptor liposomes to fibronectin, multiple of binding measured in Ca²⁺ alone / binding of fibronectin receptor liposomes to fibronectin, multiple of binding measured in Mg²⁺ alone: mean and standard error, two experiments; for binding of fibronectin receptor liposomes to fibronectin, multiple of binding measured in Mg²⁺ alone: in 1mM Mg²⁺
[7] = target: T3, Fibronectin receptor (FNR) (Homo sapiens, UniProt P05556+P08648); experiment: Inhibition by Gd3+ of fibronectin receptor liposome attachment; format: binding; settings: for % Inhibition FNR: 1 mM CaCl₂ and 1 mM MgCl₂
T3 construct: from tissue; host or cells: human placenta
T3 sequence (P08648 42-894 limits assumed): as the sequence (P08648 42-894 limits assumed) above
T3 sequence (P08648 895-1049 partner limits assumed): as the sequence (P08648 895-1049 partner limits assumed) above
T3 sequence (P05556 21-798): as the sequence (P05556 21-798) above
Protocol: (§2) The ability of Gd³⁺ to inhibit the binding of integrins was assayed in the liposome attachment system. Fibronectin receptor (FNR) and vitronectin receptor (VNR) liposomes were prepared by dialysis against TBS containing 1 mM CaCl₂ and 1 mM MgCl₂. Aliquots of GdCl₃ were added to the liposomes at the start of the assay. […] Such situations include binding of inflammatory cells at the site of a tissue injury caused by, for example, an ischemic episode, such as is associated with a cardiac or brain infarct.

[8] = target: T4, vitronectin receptor (VNR) (Homo sapiens, UniProt P05106+P06756); experiment: Inhibition by Gd3+ of vitronectin receptor liposome attachment; format: binding; settings: for % Inhibition VNR: 1 mM CaCl₂ and 1 mM MgCl₂
T4 construct: Vitronectin receptor was purified from human placenta; from tissue; host or cells: human placenta
T4 sequence (P06756 31-889 limits assumed): as the sequence (P06756 31-889 limits assumed) above
T4 sequence (P06756 891-1048 partner limits assumed): as the sequence (P06756 891-1048 partner limits assumed) above
T4 sequence (P05106 27-788): as the sequence (P05106 27-788) above
Protocol: as §2

[Sr+2] [Sr²⁺]
fibronectin receptor liposome attachment, result in words (fibronectin receptor [1]): produced increased attachment above that found in the absence of Ca²⁺ or Mg²⁺ in at least one experiment

[Cu+2] [Cu²⁺]
fibronectin receptor liposome attachment, result in words (fibronectin receptor [1]): produced increased attachment above that found in the absence of Ca²⁺ or Mg²⁺ in at least one experiment

[Cl-].[Cl-].[Mg+2] [Mg²⁺, MgCl₂, reference compound]
% Attachment (fibronectin receptor [1]): 110 ± 5%

[Be+2] [Be²⁺]
fibronectin receptor liposome attachment, result in words (fibronectin receptor [1]): produced less attachment than Ca²⁺, but did support fibronectin receptor attachment above the level found in the absence of either Ca²⁺ or Mg²⁺

[Ba+2] [Ba²⁺]
fibronectin receptor liposome attachment, result in words (fibronectin receptor [1]): produced less attachment than Ca²⁺, but did support fibronectin receptor attachment above the level found in the absence of either Ca²⁺ or Mg²⁺

[La+3] [La³⁺]
fibronectin receptor liposome attachment, result in words (fibronectin receptor [1]): produced increased attachment above that found in the absence of Ca²⁺ or Mg²⁺ in at least one experiment

[Fe+2] [Fe²⁺]
fibronectin receptor liposome attachment, result in words (fibronectin receptor [1]): produced less attachment than Ca²⁺, but did support fibronectin receptor attachment above the level found in the absence of either Ca²⁺ or Mg²⁺

[Co+2] [Co²⁺]
% Attachment (fibronectin receptor [1]): 150 ± 13%
fibronectin receptor liposome attachment, result in words (fibronectin receptor [1]): increased the percentage of attachment above that obtained in the presence of Ca²⁺ and Mg²⁺

[Ni+2] [Ni²⁺]
% Attachment (fibronectin receptor [1]): 100 ± 12%
fibronectin receptor liposome attachment, result in words (fibronectin receptor [1]): as effective as the combination of Ca²⁺ and Mg²⁺

[Cl][Mn][Cl] [Mn²⁺, MnCl₂]
enhancement of binding to vitronectin over the binding measured in Ca²⁺ and Mg²⁺ (Vitronectin receptor): 20-50%
binding of Type I collagen receptor liposomes to collagen, result in words (Type I collagen receptor): clear and specific binding to collagen
migration into cell-free spaces, result in words (A375M cells [2]): augmented migration
factor of increase of the relative affinity of the receptor for the fragment (fibronectin receptor [3]; ligand 110 kDa fibronectin fragment): 4.5
factor of increase of the relative receptor affinity for the peptide (fibronectin receptor [3]; ligand GRGDSP): 50
increase in invasion / migration of cells (A375M cells [4]; 100 µM MnCl₂, after 72 hours): 30%
effect on cell viability and migration (A375M cells [4]; concentrations higher than 100 µM): cell viability is affected and therefore migration is reduced
% Attachment (fibronectin receptor [1]): 210 ± 29%
binding of receptor isolated with Mn²⁺ in the liposome attachment assay, Mn²⁺ versus Ca²⁺/Mg²⁺ (fibronectin receptor [1]; receptor isolated with Mn²⁺): several times higher
yield of receptor with Mn²⁺ relative to Ca²⁺ and Mg²⁺ (fibronectin receptor [5]; 1 mM Mn²⁺ substituted for Ca²⁺/Mg²⁺, estimated by densitometry): four-fold higher
Receptor Peak Area (fibronectin receptor [5]; cations 1 mM in chromatography buffers, Coomassie blue gels scanned): 18.2
binding of fibronectin receptor liposomes to fibronectin, multiple of binding measured in Ca²⁺ alone (fibronectin receptor [6]; 0.01 mM Mn²⁺ added): 1.23 ± 0.66
binding of fibronectin receptor liposomes to fibronectin, multiple of binding measured in Mg²⁺ alone (fibronectin receptor [6]; 0.01 mM Mn²⁺ added): 0.97 ± 0.17
binding of fibronectin receptor liposomes to fibronectin, multiple of binding measured in Ca²⁺ alone (fibronectin receptor [6]; 0.1mM Mn²⁺ added): 4.41 ± 0.33
binding of fibronectin receptor liposomes to fibronectin, multiple of binding measured in Mg²⁺ alone (fibronectin receptor [6]; 0.1mM Mn²⁺ added): 2.04 ± 0.08
binding of fibronectin receptor liposomes to fibronectin, multiple of binding measured in Ca²⁺ alone (fibronectin receptor [6]; 1 mM Mn²⁺ added): 5.78 ± 0.47
binding of fibronectin receptor liposomes to fibronectin, multiple of binding measured in Mg²⁺ alone (fibronectin receptor [6]; 1 mM Mn²⁺ added): 3.12 ± 0.10
concentration at which liposome attachment was promoted (as low as) (fibronectin receptor [6]; cation titration, Figure 1): 3 µM

[Cd+2] [Cd²⁺]
% Attachment (fibronectin receptor [1]): 130 ± 30%
fibronectin receptor liposome attachment, result in words (fibronectin receptor [1]): increased the percentage of attachment above that obtained in the presence of Ca²⁺ and Mg²⁺

[Cl][Gd]([Cl])[Cl] [Gd³⁺, GdCl₃]
% Inhibition FNR ([7]; Gd³⁺ 0.1 mM): 8%
% Inhibition FNR ([7]; Gd³⁺ 0.3 mM): 61%
% Inhibition FNR ([7]; Gd³⁺ 1 mM): 91%
% Inhibition FNR ([7]; Gd³⁺ 3 mM): 87%
attachment of fibronectin receptor to its ligand, result in words ([7]; concentrations above 0.3 mM): significant decrease in attachment
% Inhibition VNR ([8]; Gd³⁺ 0.1 mM): 0%
% Inhibition VNR ([8]; Gd³⁺ 0.3 mM): 59%
% Inhibition VNR ([8]; Gd³⁺ 1 mM): 93%
% Inhibition VNR ([8]; Gd³⁺ 3 mM): 100%
attachment of vitronectin receptor to its ligand, result in words ([8]; concentrations above 0.3 mM): significant decrease in attachment
fibronectin receptor liposome attachment, result in words (fibronectin receptor [1]): produced increased attachment above that found in the absence of Ca²⁺ or Mg²⁺ in at least one experiment

[Zn+2] [Zn²⁺]
attachment, % of the control value (fibronectin receptor [1]; one similar assay): 128%

[Ca+2].[Cl-].[Cl-] [Ca²⁺, CaCl₂, reference compound]
% Attachment (fibronectin receptor [1]): 75 ± 10%
